Laboratory results: patent US20230203055A1, “FUSED RING COMPOUND AND APPLICATION THEREOF IN MEDICINE” (Betta Pharmaceuticals Co., LTD, priority 2020, published 2023)

How the values were obtained:
MIA PaCa-2 cells = test: Detection of cell proliferation inhibition, MIA PaCa-2 (Cell-titer Glo, 96 h); type: cell-based; conditions: Homo sapiens, read-out: IC50 (nM) MIA PaCa-2
Experimental: MIA PaCa-2 cells were plated in a 96-well ultra-low adsorption plate at 600 cells and 160 µL/well. After overnight incubation, compound solutions with gradient concentrations were prepared, and 40 µL of DMSO solutions of the compounds to be tested were added to each well of cells respectively. Compound final concentrations were 10000, 2000, 400, 80, 16, 3.2, 0.64, 0.12, 0.025, 0 nM (all final concentrations of DMSO were 0.25%). Incubate at 37° C., 5% CO2 for 96 h. Add 50 µL of Cell-titer Glo working solution to each well, shake and mix well, incubate at room temperature for 10 min, read the Luminescence luminescence value with a multi-function microplate reader, and convert the luminescence value reading into inhibition percentage: Percent Inhibition = (Max-Reading)/(Max-Min)* 100. • “Max” is the DMSO control; • “Min” is the cell-free control.
Curve fitting was performed with Graphpad Prism software and IC50 values were obtained. See Table 1for IC50 data for the inhibition of MIA PaCa-2 cells by the compounds of the examples.

H358 cells = test: Detection of cell proliferation inhibition, H358 (Cell-titer Glo, 96 h); type: cell-based; conditions: Homo sapiens, NCI-H358, read-out: IC50 (nM) H358
Experimental: H358 cells were plated in 96-well ultra-low adsorption plates at 2000 cells and 190 µL/well. After overnight incubation, compound solutions of gradient concentrations were prepared, and 10 µL of the DMSO solution of each concentration of the compound to be tested was added to the cells in each well. Compound final concentrations were 10000, 3333.3, 1111.1, 370.4, 123.5, 41.2, 13.7, 4.6, 1.5, 0 nM (all final concentrations of DMSO were 0.25%). Incubate at 37° C., 5% CO2 for 96 h. Add 50 µL of Cell-titer Glo working solution to each well, incubate at room temperature for 10 min after shaking and mixing, read the Luminescence luminescence value with a multi-function microplate reader, and convert the luminescence value reading into the inhibition percentage:
Percent Inhibition = (Max-Reading)/(Max-Min)* 100. • “Max” is the DMSO control, • “Min” is the cell-free control.
Curve fitting was performed with Graphpad Prism software and IC50 values were obtained. See Table 1 for IC50 data on H358 cell inhibition by example compounds.

SMILES	IC50 (MIA PaCa-2 cells) [nM]	IC50 (H358 cells) [nM]
C=CC(=O)N1CCN(c2nc(=O)n(-c3c(C)ccnc3C(C)C)c3c4c(c(F)cc23)-c2c(F)cccc2CO4)CC1CC#N (stereo not shown) [Example 25, 2-(1-Acryloyl-4-(10,11-Difluoro-4-(2-Isopropyl-4-Methylpyridin-3-yl)-3-Oxo-3,6-Dihydro-4H-Isochromene[4,3-h] Quinazolin-1-yl) Piperazin-2-yl)Acetonitrile]	122	339
C=CC(=O)N1CCN(c2nc(=O)n(-c3c(C)ccnc3C(C)C)c3c(F)c4c(cc23)OCc2cccc(F)c2-4)CC1CC#N (stereo not shown) [Example 26, 2-(1-Acryloyl-4-(1,12-Difluoro-11-(2-Isopropyl-4-Methylpyridin-3-yl)-10-Oxo-10,11-Dihydro-5H -Isochromene[3,4-g]Quinazolin-8-yl)Piperazin-2-yl)Acetonitrile]	546	349
C=CC(=O)N1CCN(c2nc(=O)n(-c3c(C(C)C)ncc4c3CCC4)c3c4c(c(Cl)cc23)-c2c(ccc(F)c2F)CO4)[C@@H](C)C1 [Example 27]	66	110
C=CC(=O)N1CCN(c2nc(=O)n(-c3c(C)ccnc3C(C)C)c3c4c(c(Cl)cc23)-c2c(F)ccc(O)c2CO4)[C@@H](C)C1 [Example 28]	85	95
C=C(F)C(=O)N1CCN(c2nc(=O)n(-c3c(C)ccnc3C(C)C)c3c4c(c(Cl)cc23)-c2c(ccc(F)c2F)CO4)[C@@H](C)C1 [Example 34, (S)-11-Chloro-9,10-Difluoro-1-(4-(2-Fluoroacryloyl)-2-Methylpiperazin-1-yl)-4-(2-Isopropyl-4-Methylpyridin-3-yl)-4H-Isochromo[4,3-h] Quinazolin-3(6H)-One]	908	780
[2H]C1([2H])Oc2c(c(Cl)cc3c(N4CCN(C(=O)C=C)C[C@@H]4C)nc(=O)n(-c4c(C)ccnc4C(C)C)c23)-c2c1ccc(F)c2F [Example 35]	< 50	< 50
C=CC(=O)N1CCN(c2nc(=O)n(-c3c(C)ccnc3C(C)C)c3nc4c(cc23)OCc2ccccc2-4)[C@@H](C)C1 [Example 36, (S)-8-(4-Acryloyl-2-Methylpiperazin-1-yl)-11-(2-Isopropyl-4-Methylpyridin-3-yl) -5H-Isochromene[3’,4′:5,6]Pyrido[2,3-d]Pyrimidin-10(11H)-One]	442	889
C=CC(=O)N1CCN(c2nc(=O)n(-c3c(C)ccnc3C(C)C)c3nc4c(cc23)OCc2cccc(O)c2-4)[C@@H](C)C1 [Example 37, (S)-8-(4-Acryloyl-2-Methylpiperazin-1-yl)-1-Hydroxy-11-(2-Isopropyl-4-Methylpyridine-3-yl)-5 H-Isochromene [3’,4’:5,6] Pyrido [2,3-d] Pyrimidin 10(11H)-One]	1340	2490

Now from value to compound:

IC50 (MIA PaCa-2 cells) [nM]	IC50 (H358 cells) [nM]	SMILES
< 50	< 50	C=CC(=O)N1CCN(c2nc(=O)n(-c3c(CC)ncnc3CC)c3c4c(c(Cl)cc23)-c2c(F)cccc2CCO4)[C@@H](C)C1 [Example 24]
< 50	< 50	C=CC(=O)N1CCN(c2nc(=O)n(-c3c(C)ccnc3C(C)C)c3c4c(c(Cl)cc23)-c2c(F)ccc(F)c2CO4)[C@@H](C)C1 [Example 29]
< 50	< 50	C=CC(=O)N1CCN(c2nc(=O)n(-c3c(C)ccnc3C(C)C)c3c4c(c(Cl)cc23)-c2c(ccc(F)c2F)CCO4)[C@@H](C)C1 [Example 30, 10-((S)-4-Acryloyl-2-Methylpiperazin-1-yl)-8-Chloro-6,7-Difluoro-13-(2-Isopropyl-4-Methylpyridin-3-yl)-2,3-Dihydrobenzo[4,5] Oxa[3,2-h]Quinazolin-12(13H)-One]
< 50	< 50	C=CC(=O)N1CCN(c2nc(=O)n(-c3c(CC)cncc3CC)c3c4c(c(Cl)cc23)-c2c(F)cccc2CCO4)[C@@H](C)C1 [Example 31, 10-((S)-4-Actyloyl-2-Methylpiperazin-1-yl)-8-Chloro-13-(3,5-Diethylpyridin-4-yl)-7-Fluoro-2,3-Dihydrobenzo[4,5]Oxa[3,2-h]Quinazolin-12(13H)-One]
< 50	< 50	C=CC(=O)N1CCN(c2nc(=O)n(-c3c(C4CC4)ncnc3C3CC3)c3c4c(c(Cl)cc23)-c2c(F)cccc2CCO4)[C@@H](C)C1 [Example 32, 10-((S)-4-Acryloyl-2-Methylpiperazin-1-yl)-8-Chloro-13-(4,6-Dicyclopropylpyrimidine-5-Base)-7 -Fluoro-2,3-Dihydrobenzo[4,5] Oxa[3,2-h]Quinazolin-12(13H)-One]
< 50	< 50	C=CC(=O)N1CCN(c2nc(=O)n(-c3c(C)ccnc3C(C)C)c3c4c(c(Cl)cc23)-c2c(F)cccc2CO4)C2CC21 (stereo not shown) [Example 33, 1-(5-Acryloyl-2,5-Diazabicyclo [4.1.0] Heptan-2-yl)-11-Chloro-10-Fluoro-4-(2-Isopropyl-4-Methylpyridin-3-yl)-4H-Isochromeno[4,3-h]Quinazolin-3(6H)-One]
